Test results: patent US20250052744A1, “Dyes and Uses Thereof” (The University of Liverpool, priority 2021, published 2025)

Columns and labels:
Type in all cases: cell-based
[1] = tested on: Proteus vulgaris; test: Qualitative dye staining on agarose pads (EVOS M7000); set-up: key to Relative fluorescent intensity: Very high: If the cells looked twice as big in the fluorescent channel, it was marked as having “very high” relative fluorescent intensity; High: if the cells looked bigger in the fluorescent channel, it was marked as having “high” relative fluorescent intensity; Medium: If the cells looked almost the same size in the fluorescent channel and the bright field, it was marked as having “medium” relative fluorescent intensity; Low: If the cells looked smaller in the fluorescent channel as compared to the brightfield but still the whole cell was visible, it was marked as having “low” relative fluorescent intensity; Negligible: If only a few traces of a cell was visible in the fluorescent channel, it was marked as having “negligible” relative fluorescent intensity; conditions: DiSC3(5) 3 μM, SYBR Green I 10×, SYTO 13 3 μM, FM4-64 15 μM
[2] = tested on: E. Coli SEC 31; test: Bacterial growth with dyes, optical density after 24 hours; conditions: with 3 μM DiSC3(5) and 3 μM SYTO 13/9
Protocol: (§1) FIG. 3 is a graph showing is a graph showing the average optical density after 24 hours (OD 600) of P. Aeruginosa NCTC 10332, E. Coli SEC 31, Enterococcus faecium NCTCT 7171, P. Mirabilis NCTC 11938, S. Aureus NCTC 8532 and Klebsiella pneumoniae NCTC 9633, when incubated with DiSC3(5), SYBR Green I and SYTO 13/9 where different concentrations of SYBR Green I were assessed.
as §1, with “FIG. 4” for “FIG. 3”, “of SYTO 13/9” for “of SYBR Green I”
(§2) Comparative experiments were conducted using multiple DNA dyes in low concentration and one DNA at different (and higher) concentration in order to establish whether increasing DNA dye concentration would affect bacterial growth and hinder the differentiation of bacterial strains.
(§3) Experiments were conducted which were similar to Example 1.
(§4) In one experiment, 3 μM of DiSC3(5) and 3 μM of SYTO 13/9 was assessed with CYBR Green I at the following concentrations: 1× average, 3× average, 10× average, 30 average and 100× average.
(§5) In another experiment, 3 μM of DiSC3(5) and 10× of CYBR Green I was assessed with SYTO 13/9 at the following concentrations: 1 μM average, 3 μM average and 10 μM average.

[3] = tested on: Enterococcus faecium NCTCT 7171; test: as above; conditions: with 3 μM DiSC3(5) and 3 μM SYTO 13/9
Protocol: as §1
as §1, with “FIG. 4” for “FIG. 3”, “of SYTO 13/9” for “of SYBR Green I”
as §2, §3, §4, §5

[4] = tested on: P. Mirabilis NCTC 11938; test: as above; conditions: with 3 μM DiSC3(5) and 3 μM SYTO 13/9
Protocol: as §1
as §1, with “FIG. 4” for “FIG. 3”, “of SYTO 13/9” for “of SYBR Green I”
as §2, §3, §4, §5

[5] = Table 8 sample Proteus vulgaris (024)
[6] = Table 8 sample Proteus vulgaris (025)
[7] = Table 8 sample Proteus vulgaris (026)

Row | Structure (SMILES) | Percentage of cells stained [1, 5] | Relative fluorescent intensity [1, 5] | Percentage of cells stained [1, 6] | Relative fluorescent intensity [1, 6] | Percentage of cells stained [1, 7] | Relative fluorescent intensity [1, 7] | other results
1 | CCCN1C(=CC=CC=Cc2sc3ccccc3[n+]2CCC)Sc2ccccc21.[I-] [DiSC3(5), 3,3′-Dipropylthiadicarbocyanine Iodide] | Almost all | Low | Few | Medium | Almost all | Low | 
2 | CCN(CC)c1ccc(C=CC=CC=Cc2cc[n+](CCC[N+](CC)(CC)CC)cc2)cc1.[Br-].[Br-] [FM 4-64, N-(3-Triethylammoniumpropyl)-4-(6-(4-(Diethylamino) Phenyl) Hexatrienyl) Pyridinium Dibromide] | Few | Negligible | Few | Negligible | Few | Negligible | 
3 | CCCN(CCCN(C)C)c1cc(/C=C2/Sc3ccccc3N2C)c2ccccc2[n+]1-c1ccccc1 [SYBR Green I, N′,N′-dimethyl-N-[4-[(E)-(3-methyl-1,3-benzothiazol-2-ylidene)methyl]-1-phenylquinolin-1-ium-2-yl]-N-propylpropane-1,3-diamine] | Half | Low | Half | Low | Almost all | Low | average optical density after 24 hours (OD 600) ([2]; SYBR Green I 1x): 3.407; average optical density after 24 hours (OD 600) ([2]; SYBR Green I 3x): 3.306; average optical density after 24 hours (OD 600) ([2]; SYBR Green I 10x): 3.139; average optical density after 24 hours (OD 600) ([2]; SYBR Green I 30x): 2.086; average optical density after 24 hours (OD 600) ([2]; SYBR Green I 100x): 2.514; average optical density after 24 hours (OD 600) ([3]; SYBR Green I 1x): 1.158; average optical density after 24 hours (OD 600) ([3]; SYBR Green I 3x): 1.315; average optical density after 24 hours (OD 600) ([3]; SYBR Green I 10x): 0.136; average optical density after 24 hours (OD 600) ([3]; SYBR Green I 30x): 0; average optical density after 24 hours (OD 600) ([3]; SYBR Green I 100x): 0.022; average optical density after 24 hours (OD 600) ([4]; SYBR Green I 1x): 5.785; average optical density after 24 hours (OD 600) ([4]; SYBR Green I 3x): 5.785; average optical density after 24 hours (OD 600) ([4]; SYBR Green I 10x): 4.635; average optical density after 24 hours (OD 600) ([4]; SYBR Green I 30x): 4.044; average optical density after 24 hours (OD 600) ([4]; SYBR Green I 100x): 0.001
